Source: patent US11052087B2, “Anti-HIV compounds” (priority 2018, dated 2021)
In brackets after ≈: the same amount, converted by molar mass. Structures can show the parent of a compound that is named as a salt. Where two headings read alike, the source gives them in different places.

Key:
[1] = Rat PK; format: in vivo; details: compound 14 oral solution, 75 mg-eq/kg dose group, male SD rats, LC/MS/MS
Procedure: Compound 14 was formulated in a solution formulation (84% 10 mM HCl; 15% 2-Hydroxypropyl-β-Cyclodextrin; 1% Dimethyl sulfoxide pH 2.0) and administered orally at 2.5 and 75 mg-eq/kg to a dosing groups consisting of three male SD rats. At dosing, the animals weighed between 270 and 350 g. […] Trace amounts of compound 14 were detected in plasma in the 75 mg-eq/kg dose group.

[2] = tested on: HIV-1 (IIIB) in MT-4 cells; assay: MT-4 HIV Assay; format: cell-based
Procedure: Compounds were tested in a high-throughput 384-well assay format for their ability to inhibit the replication of HIV-1 (IIIB) in MT-4 cells. Compounds were serially diluted (1:3) in DMSO on 384-well polypropylene plates and further diluted 200-fold into complete RPMI media (10% FBS, 1% P/S) using the Biotek Micro Flow and Agilent ECHO acoustic dispenser. Each plate contained up to 8 test compounds, with negative (No Drug Control) and 5 μM AZT positive controls. MT-4 cells were pre-infected with 10 μL of either RPMI (mock-infected) or a fresh 1:250 dilution of an HIV-1 (IIIB) concentrated virus stock. Infected and uninfected MT-4 cells were further diluted in complete RPMI media and added to each plate using a Micro Flow dispenser. After 5 days incubation in a humidified and temperature controlled incubator (37° C.), Cell Titer Glo (Promega) was added to the assay plates to quantify the amount of luciferase. EC50 values were defined as the compound concentration that causes a 50% decrease in luminescence signal, and were calculated using a sigmoidal dose-response model to generate curve fits.

[3] = Kinetic Solubility Analysis (CLND); format: physicochemical; details: 26 °C, kinetic from dmso stock
Procedure: Kinetic Solubility Analysis (CLND) Buffer Preparation:
0.1N HCl: Hydrochloric acid, 0.1N standardized solution.
1×PBS, 7.4: Phosphate Buffered Saline solution 10×, PBS 50 mL was added to approximately 450 mL HPLC grade H2O. The volume of the solution was then adjusted to 500 mL for a total dilution factor of 1:10 and a final PBS concentration of IX.
Kinetic Solubility from DMSO Stocks:
The final DMSO concentration is 1.0% and maximum theoretical compound concentration is 100 μM (assuming stock concentration of 10 mM). The filter plate was sealed. […] The collection plate was sealed for analysis. Filtrates were injected into the nitrogen detector for quantification.
The equimolar nitrogen response of the detector was calibrated using standards which spanned the dynamic range of the instrument from […] nitrogen. The filtrates were quantified with respect to this calibration curve. The calculated solubility values were corrected for background nitrogen present in the DMSO and the media used to prepare the samples.

[4] = in vivo; details: beagle, dog, po
Procedure: Pharmacokinetic Profiling Dog PK
(§6) Compound 11 was formulated in a suspension formulation (1% HPMC and 0.05% Tween 20 in DI Water) and administered orally at 10 mg-eq/kg to a dosing group consisting of three non-naïve male beagle dogs. At dosing, the animals weighed between 9 to 12 kg. The animals were fasted overnight prior to dose administration and up to four hours after dosing. Serial venous blood samples (approximately 1.0 mL each) were obtained at pre-dose, 0.25, 0.50, 1, 2, 4, 6, 8, 12, and 24 hours post-dose. The blood samples were collected into Vacutainer™ tubes containing EDTA-K2 as the anti-coagulant and were immediately placed on wet ice pending centrifugation for plasma. An LC/MS/MS method was used to measure the concentration of compound 11 and compound D in plasma. […] In a second experiment, compound D was dosed orally as a suspension using the same formulation and dose level.

[5] = Liver microsomal stability (human); format: in vitro ADME; details: human liver microsomes 0.5 mg/mL, 1 μM compound, NADPH-regenerating system, 37° C.
Procedure: (§1) Liver Microsomal Stability Protocol
(§2) Test compounds and one control compound (verapamil) were tested in 3 different species in duplicate sets.
(§3) Test compound concentration: 1 μM; Protein concentration: 0.5 mg/mL (for rat and human liver microsomes); Cofactor: NADPH-Regenerating system (NRS) solution. Time-points: 2, 12, 25, 45, and 65 minutes.
(§4) Reaction composition (in each incubation well) contains:
(§5) At an incubation temperature of 37° C., the reaction was started with addition of NADPH Regeneration System, at each time point, 25 μL of the reaction mixture was removed and added to a plate with 225 μL quenching solution (50% MeOH, 25% ACN, 25% H2O, and 200 nM labetalol as internal standard). After plates were vortexed, they were centrifuged for 30 minutes to remove proteins. About 100 μL supernatant was removed to a new plate and diluted with 150 μL water. About 20 μL of the mixture was injected into an LC/MS/MS system to monitor the compound's response. In vitro measured t1/2 was used to calculate Clint values.

[6] = Liver microsomal stability (rat); format: in vitro ADME; details: rat liver microsomes 0.5 mg/mL, 1 μM compound, NADPH-regenerating system, 37° C.
Procedure: as §1, §2, §3, §4, §5

[7] = male, beagle, dog, in vivo
Procedure: Pharmacokinetic Profiling Dog PK
as §6

[8] = 0.1N HCl, pH 1, simulated gastric fluid, read-out: Solubility, HCl, pH 1.0, RT
[9] = PBS, pH 7.4, aqueous buffer, read-out: Solubility, PBS, pH 7.4, RT
[10] = Human immunodeficiency virus 1, MT4, 120 h, HIV-1 (IIIB) replication in MT-4 cells, 5 days incubation, Cell Titer Glo, read-out: EC50

Which “concentration of compound 14 in plasma” value [1] does the source give for COC(=O)N[C@H](C(=O)N[C@@H](Cc1ccc(C#Cc2cnc(N3CC4CCC(C3)N4C3COC3)nc2)cc1)[C@H](CN(Cc1c(F)cc(-c2ccn(C(F)F)n2)cc1F)NC(=O)[C@@H](NC(=O)OC)C(C)(C)C(F)(F)F)OC(=O)CN(C)C(=O)[C@@H](N)Cc1ccccc1)C(C)(C)C(F)(F)F [Example 14, (2S,3S)-1-(1-(4-(1-(difluoromethyl)-1H-pyrazol-3-yl)-2,6-difluorobenzyl)-2-((S)-4,4,4-trifluoro-2-((methoxycarbonyl)amino)-3,3-dimethylbutanoyl)hydrazinyl)-4-(4-((2-(8-(oxetan-3-yl)-3,8-diazabicyclo[3.2.1]octan-3-yl)pyrimidin-5-yl)ethynyl)phenyl)-3-((S)-4,4,4-trifluoro-2-((methoxycarbonyl)amino)-3,3-dimethylbutanamido)butan-2-yl N-(L-phenylalanyl)-N-methylglycinate] here?
Its value is “Trace amounts”.

And the EC50 ([2]; Human immunodeficiency virus 1, IIIB, MT4, 120 h)?
Its EC50 is 6.54 nM.

For COC(=O)N[C@H](C(=O)N[C@@H](Cc1ccc(C#Cc2cnc(N3CC4CCC(C3)N4C3COC3)nc2)cc1)[C@@H](O)CN(Cc1c(F)cc(-c2ccn(C(F)F)n2)cc1F)NC(=O)[C@@H](NC(=O)OC)C(C)(C)C(F)(F)F)C(C)(C)C(F)(F)F [Compound D, methyl ((5S,8S,9S,14S)-11-(4-(1-(difluoromethyl)-1H-pyrazol-3-yl)-2,6-difluorobenzyl)-16,16,16-trifluoro-9-hydroxy-15,15-dimethyl-8-(4-((2-(8-(oxetan-3-yl)-3,8-diazabicyclo[3.2.1]octan-3-yl)pyrimidin-5-yl)ethynyl)benzyl)-3,6,13-trioxo-5-(1,1,1-trifluoro-2-methylpropan-2-yl)-2-oxa-4,7,11,12-tetraazahexadecan-14-yl)carbamate, reference compound], which solubility at 24 h [3, 8] is on record?
The solubility at 24 h was 19.5 µM (≈ 22.5 µg/mL).

And the solubility at 24 h [3, 9]?
Its solubility at 24 h is under 1 µM.

And the bioavailability [4]?
The bioavailability was 2.6 ± 1.1%.

With COC(=O)N[C@H](C(=O)N[C@@H](Cc1ccc(C#Cc2cnc(N3CC4CCC(C3)N4C3COC3)nc2)cc1)[C@H](CN(Cc1c(F)cc(-c2ccn(C(F)F)n2)cc1F)NC(=O)[C@@H](NC(=O)OC)C(C)(C)C(F)(F)F)OC(=O)c1ccccn1)C(C)(C)C(F)(F)F [Example 6, (5S,10S,11S,14S)-8-(4-(1-(difluoromethyl)-1H-pyrazol-3-yl)-2,6-difluorobenzyl)-11-(4-((2-(8-(oxetan-3-yl)-3,8-diazabicyclo[3.2.1]octan-3-yl)pyrimidin-5-yl)ethynyl)benzyl)-3,6,13,16-tetraoxo-5,14-bis(1,1,1-trifluoro-2-methylpropan-2-yl)-2,17-dioxa-4,7,8,12,15-pentaazaoctadecan-10-yl picolinate] as the molecule, how does the solubility at 24 h [3, 8] read?
The solubility at 24 h was 38.5 µM (≈ 48.6 µg/mL).

And the solubility at 24 h [3, 9]?
Its solubility at 24 h is under 1 µM.

And the “Human Pred Cl. (L/H/kg)” value [5]?
Its value is 0.29 L/H/kg.

And the EC50 [2, 10]?
The EC50 was 278 nM.

And the “Rat. Pred. Cl. (L/H/kg)” value [6]?
Its value is under 0.4 L/H/kg.

What does the source list for COC(=O)N[C@H](C(=O)N[C@@H](Cc1ccc(C#Cc2cnc(N3CC4CCC(C3)N4C3COC3)nc2)cc1)[C@H](CN(Cc1c(F)cc(-c2ccn(C(F)F)n2)cc1F)NC(=O)[C@@H](NC(=O)OC)C(C)(C)C(F)(F)F)OC=O)C(C)(C)C(F)(F)F [Example 1, (5S,10S,11S,14S)-8-(4-(1-(difluoromethyl)-1H-pyrazol-3-yl)-2,6-difluorobenzyl)-11-(4-((2-(8-(oxetan-3-yl)-3,8-diazabicyclo[3.2.1]octan-3-yl)pyrimidin-5-yl)ethynyl)benzyl)-3,6,13,16-tetraoxo-5,14-bis(1,1,1-trifluoro-2-methylpropan-2-yl)-2,17-dioxa-4,7,8,12,15-pentaazaoctadecan-10-yl formate]?
solubility at 24 h [3, 8]: 20 µM; solubility at 24 h [3, 9]: < 1 µM; Human Pred Cl. (L/H/kg) [5]: 0.37 L/H/kg; EC50 [2, 10]: 4.62 nM; Rat. Pred. Cl. (L/H/kg) [6]: <0.4 L/H/kg

Which solubility at 24 h [3, 8] does the source give for COC(=O)N[C@H](C(=O)N[C@@H](Cc1ccc(C#Cc2cnc(N3CC4CCC(C3)N4C3COC3)nc2)cc1)[C@H](CN(Cc1c(F)cc(-c2ccn(C(F)F)n2)cc1F)NC(=O)[C@@H](NC(=O)OC)C(C)(C)C(F)(F)F)OC(=O)CCCN1CCOCC1)C(C)(C)C(F)(F)F [Example 2, (5S,10S,11S,14S)-8-(4-(1-(difluoromethyl)-1H-pyrazol-3-yl)-2,6-difluorobenzyl)-11-(4-((2-(8-(oxetan-3-yl)-3,8-diazabicyclo[3.2.1]octan-3-yl)pyrimidin-5-yl)ethynyl)benzyl)-3,6,13,16-tetraoxo-5,14-bis(1,1,1-trifluoro-2-methylpropan-2-yl)-2,17-dioxa-4,7,8,12,15-pentaazaoctadecan-10-yl 4-morpholinobutanoate] here?
Its solubility at 24 h is 81 µM (≈ 106 µg/mL).

What about the solubility at 24 h [3, 9] of the same molecule?
The solubility at 24 h was under 1 µM.

What about the “Human Pred Cl. (L/H/kg)” value [5] of the same molecule?
Its value is 0.53 L/H/kg.

And the EC50 [2, 10]?
Its EC50 is 56.6 nM.

What about the “Rat. Pred. Cl. (L/H/kg)” value [6] of the same molecule?
The value was 0.84 L/H/kg.

For COC(=O)N[C@H](C(=O)N[C@@H](Cc1ccc(C#Cc2cnc(N3CC4CCC(C3)N4C3COC3)nc2)cc1)[C@H](CN(Cc1c(F)cc(-c2ccn(C(F)F)n2)cc1F)NC(=O)[C@@H](NC(=O)OC)C(C)(C)C(F)(F)F)OC(=O)OCOP(=O)(O)O)C(C)(C)C(F)(F)F [Example 11, methyl ((5S,10S,11S,14S)-8-(4-(1-(difluoromethyl)-1H-pyrazol-3-yl)-2,6-difluorobenzyl)-16,16,16-trifluoro-15,15-dimethyl-11-(4-((2-(8-(oxetan-3-yl)-3,8-diazabicyclo[3.2.1]octan-3-yl)pyrimidin-5-yl)ethynyl)benzyl)-3,6,13-trioxo-10-((((phosphonooxy)methoxy)carbonyl)oxy)-5-(1,1,1-trifluoro-2-methylpropan-2-yl)-2-oxa-4,7,8,12-tetraazahexadecan-14-yl)carbamate], which “bioavailability of compound D” value [7] is on record?
The value was 5.5±2.6%.

With COC(=O)N[C@H](C(=O)N[C@@H](Cc1ccc(C#Cc2cnc(N3CC4CCC(C3)N4C3COC3)nc2)cc1)[C@H](CN(Cc1c(F)cc(-c2ccn(C(F)F)n2)cc1F)NC(=O)[C@@H](NC(=O)OC)C(C)(C)C(F)(F)F)OC(=O)c1cccnc1)C(C)(C)C(F)(F)F [Example 5, (5S,10S,11S,14S)-8-(4-(1-(difluoromethyl)-1H-pyrazol-3-yl)-2,6-difluorobenzyl)-11-(4-((2-(8-(oxetan-3-yl)-3,8-diazabicyclo[3.2.1]octan-3-yl)pyrimidin-5-yl)ethynyl)benzyl)-3,6,13,16-tetraoxo-5,14-bis(1,1,1-trifluoro-2-methylpropan-2-yl)-2,17-dioxa-4,7,8,12,15-pentaazaoctadecan-10-yl nicotinate] as the molecule, how does the solubility at 24 h [3, 8] read?
Its solubility at 24 h is 89.2 µM (≈ 112 µg/mL).

What about the solubility at 24 h [3, 9] of the same molecule?
Its solubility at 24 h is under 1 µM.

And the “Human Pred Cl. (L/H/kg)” value [5]?
Its value is 0.28 L/H/kg.

And the EC50 [2, 10]?
Its EC50 is 1140 nM.

What about the “Rat. Pred. Cl. (L/H/kg)” value [6] of the same molecule?
Its value is 0.58 L/H/kg.
